This passage reports IC50 results from US9284283B2, “Macrocyclic compounds for modulating IL-17” (ENSEMBLE THERAPEUTICS CORPORATION, priority 2012, dated 2016).

This test has as its target T1, biotinylated human IL-17 (binding to IL17R/Fc) (Homo sapiens, UniProt Q16552).
T1 construct: purchased R&D Systems 317-ILB (IL-17, biotinylated); 177-IR (IL17R/Fc)
T1 sequence (Q16552 20-155 limits assumed): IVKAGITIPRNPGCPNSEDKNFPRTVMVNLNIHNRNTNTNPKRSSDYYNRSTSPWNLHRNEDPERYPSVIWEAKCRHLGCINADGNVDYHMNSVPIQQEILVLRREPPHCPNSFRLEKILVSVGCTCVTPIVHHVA
The experiment in a line: IL-17 competition ELISA II (captured IL17R/Fc, biotinylated IL-17). Put shortly: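 Anti-human IgG-coated plates captured IL17R/Fc (10 nM), then compound (5-fold dilutions from 1 μM) and biotinylated human IL-17 (20 nM stock) were added for 30 min at room temperature in PBST. Bound IL-17 detected by streptavidin-HRP/TMB at 450 nm. IC50 from 4-parameter logistic fit between no-competitor and blank controls.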
(In an ELISA, binding on a coated surface is turned into a signal by an enzyme label.)
In general, IC50 refers to the concentration needed to halve the response being measured. `O=C(O)CC[C@H]1NC(=O)[C@@H](Cc2ccc(NC(=O)[C@H](Cc3ccccc3Cl)NC(=O)C3(c4ccc(F)cc4)CC3)cc2)NC(=O)CC2(CCCC2)CC(=O)NCCCCCNC1=O` [Compound 472]: the IC50 is below 100 nM.
Under `CN1C(=O)CC2(CCCC2)CC(=O)NCCCCC#CCNC(=O)[C@H]1Cc1ccc(NC(=O)[C@H](Cc2ccccc2Cl)NC(=O)C2(c3ccc(F)cc3)CC2)cc1` [Compound 498] stands 1000 to 10000 nM; under `O=C1CC2(CCCC2)CC(=O)N[C@H](Cc2ccc(NC(=O)[C@H](Cc3ccccc3Cl)NC(=O)C(=O)c3ccccc3)cc2)C(=O)NCCOCCOCCN1` [Compound 548], below 100 nM; under `C[C@H]1NC(=O)[C@@H](CCCNC(=O)[C@H](Cc2ccccc2Cl)NC(=O)C(F)(F)c2ccccc2)NC(=O)CC2(CCCC2)CC(=O)NCCCCCNC1=O` [Compound 608], above 10000 nM.
Under `O=C1CC2(CCCC2)CC(=O)N[C@H](Cc2ccc(NC(=O)[C@@H](NC(=O)c3cccnc3)C3CCCCC3)cc2)C(=O)NCCCCCCCCCN1` [Compound 407] stands 100 to 1000 nM; under `CN1CCOCCOCCNC(=O)[C@@H](Cc2ccc(NC(=O)[C@H](Cc3ccccc3Cl)NC(=O)C(=O)c3ccccc3)cc2)NC(=O)CC2(CCCC2)CC1=O` [Compound 585], below 100 nM.
Under `O=C1CC2(CCCC2)CC(=O)N[C@H](Cc2ccc(NC(=O)[C@H](Cc3ccccc3Cl)NC(=O)Cc3ccccc3)cc2)C(=O)NCCCN1` [Compound 398] stands below 100 nM; under `C[C@H]1NC(=O)[C@@H](Cc2ccc(NC(=O)[C@H](Cc3ccccc3Cl)NC(=O)Cc3ccc(F)cc3)cc2)NC(=O)CC2(CCCC2)NC(=O)CCCCCCCNC1=O` [Compound 619], below 100 nM; under `C[C@H]1NC(=O)[C@@H](Cc2ccc(NC(=O)[C@@H](NC(=O)Cc3ccc(N(C)C)cc3)C3CCCCC3)cc2)NC(=O)CC2(CCCC2)CC(=O)N(C)CCOCCN(C)C1=O` [Compound 603], below 100 nM.
Take `O=C1CC2(CCCC2)CC(=O)N[C@H](Cc2ccc(NC(=O)[C@@H](NC(=O)c3cccnc3)C3CCCCC3)cc2)C(=O)NCCOCCOCCN1` [Compound 417]: the IC50 is 100 to 1000 nM.
For `O=C1CC2(CCCC2)CC(=O)N[C@H](Cc2ccc(NC(=O)[C@@H](NC(=O)Cc3ccccc3)C3CCCCC3)cc2)C(=O)NCCCCCCCCCN1` [Compound 350] the value was 100 to 1000 nM; for `CN1CCOCCOCCNC(=O)[C@@H](Cc2ccc(NC(=O)[C@H](CC3CCC3)NC(=O)Cc3ccc(N(C)C)cc3)cc2)NC(=O)CC2(CCCC2)CC1=O` [Compound 616], below 100 nM; for `O=C1CC2(CCCC2)CC(=O)N[C@H](Cc2ccc(NC(=O)[C@@H](NC(=O)c3cccnc3)C3CCCCC3)cc2)C(=O)NCC#CCCCCCN1` [Compound 458], 1000 to 10000 nM.
As to `C[C@H]1NC(=O)[C@@H](Cc2ccc(NC(=O)[C@@H](NC(=O)C(F)(F)c3ccccc3)C3CCCCC3)cc2)NC(=O)CC2(CCCC2)CC(=O)N(C)CCOCCN(C)C1=O` [Compound 602], the IC50 was below 100 nM.
For `COC(=O)[C@@H]1CCCCNC(=O)CNC(=O)[C@@H](Cc2ccc(NC(=O)[C@H](Cc3ccccc3Cl)NC(=O)NCc3ccccc3)cc2)NC(=O)CC2(CCCC2)CC(=O)N1` [Compound 459] the value was below 100 nM; for `O=C1CC2(CCCC2)CC(=O)N[C@H](Cc2ccc(NC(=O)[C@H](Cc3ccccc3Cl)NC(=O)c3cccnc3)cc2)C(=O)NCCCCN1` [Compound 420], 100 to 1000 nM; for `O=C1CNC(=O)[C@@H](Cc2ccc(-n3c(C(F)(F)F)nc(Cc4ccccc4Cl)c3OC(=O)C(F)(F)F)cc2)NC(=O)CC2(CCCC2)CC(=O)NCCCCCN1` [Compound 440], 100 to 1000 nM.
Take `CN1CCCC/C=C/CNC(=O)[C@@H](Cc2ccc(NC(=O)[C@@H](NC(=O)c3cccnc3)C3CCCCC3)cc2)NC(=O)CC2(CCCC2)CC1=O` [Compound 448]: the half-maximal inhibitory concentration (IC50) fell in the range of 100 to 1000 nM.
Take `COC(=O)N[C@@H](Cc1ccccc1Cl)C(=O)Nc1ccc(C[C@H]2NC(=O)CC3(CCCC3)CC(=O)N(C)CCOCCOCCNC2=O)cc1` [Compound 568]: the IC50 was below 100 nM.
